From patent US6878689B2, “Preventives or remedies for heart failure” (Kaken Pharmaceutical Co., Ltd., priority 2000, dated 2005)
Where a SMILES comes first, the peptide text is derived from it. Where no end group is shown, it is not given here. [ ]: non-standard residue; d: D form. dTrp(2-Me) = Cc1[nH]c2ccccc2c1C[C@@H](N)C(=O)O

Tested on: papillary muscle of guinea-pig
Assay: Myocardial contractility (developed tension) in isolated, electrically driven papillary muscle of guinea-pig
Conditions: for change in developed tension: isolated guinea-pig papillary muscle, 1 Hz; for tension development (positive inotropic action) vs baseline: cumulative 10, 30 and 100 μM, n=5, FIG. 1
Procedure: [Test Example 1] Myocardial Contractility Enhancing Action of Pralmorelin in the Papillary Muscle of Guinea-Pig
The direct effect of pralmorelin on myocardial contractility was evaluated using the isolated cardiac muscle of guinea-pigs according to the standard method for evaluating myocardial contractility. • 1. Materials and Experimental Method • 1) Animal Used
Male Hartley guinea-pigs (body weight, 301-350 g; Japan SLC) were purchased. The animals were accommodated to an environment at a temperature of 23±2° C. and a humidity of 55±15% under 12-hr light/dark cycles while they were allowed to eat and drink water ad libitum until they weighed 360-480 g. Each test substance was tested on a group of five animals. • 2) Reagents Used
The test substances were pralmorelin dihydrochloride (KP-102), representatives of growth hormone secretagogues such as hexarelin, ghrelin and ibutamorelin methanesulfonate (the last being hereunder referred to as MK-0677) (which were prepared by the method described in JP 6-263737 A (kokai)), as well as a recombinant human growth hormone (Sumitomo Pharmaceutical) and amrinone (Sigma) which is a known therapeutic of acute heart failure. KP-102, hexarelin and MK-0677 were dissolved in distilled water. Ghrelin was dissolved in physiological saline. Amrinone was first dissolved in dimethyl sulfoxide and then diluted with physiological saline. The growth hormone was dissolved in a dedicated solubilizer (0.3 w/v % metacresol and 3.9 w/v % D-mannitol). None of the test substance solutions should be added in an amount exceeding 1 w/v %. All reagents other than the test substances were guaranteed products of Nacalai Tesque. • 3) Preparing Specimens of the Isolated Papillary Muscle
The guinea-pigs were stunned with a blow to the back of their head; thereafter, the carotid artery was incised and the animals were exsanguinated to death. The chest was opened, the blood vessels in the upper part of the heart were cut and the heart was removed. The heart was immediately transferred into a Krebs-Henseleit (K-H) nutrient solution (NaCl, 118.0 mM; KCl, 4.7 mM; CaCl2. 2H2O, 1.0 mM; KH2PO4, 1.2 mM; MgSO4.7H2O, 1.2 mM; NaHCO3, 25.0 mM; glucose, 11.0 mM) that had been fully aerated with 95% O2-5% CO2. The heart was fixed on a rubber-lined Petri dish with needles such that its front face was seen. The ventricular wall of the upper right ventricle (toward the atrium) was excised transversely along the atrium, then excised longitudinally along the interventricular septum so that the ventricular wall was opened to expose the right ventricular papillary muscle. Subsequently, the entire surface of the left ventricle was cut open from the aorta (down) to the apex and the anterior wall of the left ventricle was opened wide, to both right and left, and fixed to expose the papillary muscle of the left ventricle. The tricupsid or mitral valve was cut off from the ventricle and the papillary muscle was cut off at the base to prepare a specimen of papillary muscle. The base of the specimen was fixed to field stimulating electrodes in an organ bath filled with 15 mL of the nutrient solution. The tendinous cord adhering to the valve was tied up with a thread and connected to an FD pickup (TB-612T, Nihon Kohden). A resting tension of 0.5 g was loaded and the papillary muscle was driven with an electric stimulator (SEN-3201, Nihon Kohden) at a frequency of 1 Hz by pulses of 20-ms duration and at a voltage intensity about 1.2 times the threshold. After an equilibration period of about 1 hr, KP-102, hexarelin and amrinone were each applied cumulatively up to amounts of 10, 30 and 100 μM. After examination of the changes in inotropic action due to the application of the test substances, 12.5 mM of CaCl2 was added and the maximum tension that was developed by each specimen was obtained. […]

Compound: recombinant human growth hormone: recombinant human growth hormone (Sumitomo Pharmaceutical)
- change in developed tension (0.2 IU/mL): no changes in the developed tension

Compound: ghrelin (GSSFLSPEHQRVQQRKESKKPPAKLQPR; ends and bridges not checked; UniProt Q9UBU3 24-51, looked up) [representative growth hormone secretagogue]
- change in developed tension (1 μM): no changes in the developed tension

Compound: CC(C)(N)C(=O)N[C@H](COCc1ccccc1)C(=O)N1CCC2(CC1)CN(S(C)(=O)=O)c1ccccc12 [MK-0677, ibutamorelin methanesulfonate]
- change in developed tension (100 μM): no changes in the developed tension

Compound: Cc1[nH]c2ccccc2c1C[C@@H](NC(=O)[C@@H](N)Cc1cnc[nH]1)C(=O)N[C@@H](C)C(=O)N[C@@H](Cc1c[nH]c2ccccc12)C(=O)N[C@H](Cc1ccccc1)C(=O)N[C@@H](CCCCN)C(N)=O [hexarelin] (H-H[dTrp(2-Me)]AW[dF]K-NH2)
- tension development (positive inotropic action) vs baseline: very weak and by no means significant over the baseline value

Compound: Nc1cc(-c2ccncc2)c[nH]c1=O [amrinone]
- tension development (positive inotropic action) vs baseline: increased in a concentration-dependent manner
